From patent US11337984B2, “Methods for treating, diagnosing and prognosing a haematological malignancy” (Institut de Recerca Contra La Leucèmia Josep Carreras, priority 2014, dated 2022) come the findings set out here.

Structures are written as SMILES.

Series [1] deals with HL-60, KG-1, MonoMac-1 and Kasumi-1 AML cell lines. The series is described as follows: Differentiation-associated surface markers on AML cell lines by flow cytometry. The class given is cell-based, human. To be noted: 0.1, 1 and 10 μM, 72 h; all AML cell lines. On the procedure:
FIG. 5. […] The surface expression of CD11c, CD11b and CD14 was detected by flow cytometry. […] MFI: Mean Fluorescence Intensity.
HL-60, KG-1, MonoMac-1 and Kasumi-1 AML cell lines were treated with Apomorphine and Methiothepin at different concentrations for 72 h as described above. The expression of differentiation-associated surface markers was measured by flow cytometry.
For orientation: A flow cytometer gives signals particle by particle.

Series [2] deals with AML cells. The series is described as follows: CFU assay of engrafted AML samples. The class given is cell-based. To be noted: engrafted human cells from primary transplanted mice. On the procedure: (§1) FIG. 17. Treatments with 5HTR antagonists reduce the leukemia regeneration capacity of primary AML samples in secondary recipient, without affecting normal hematopoiesis. Upper panel. 3-10×10^5 engrafted bone marrow cells from primary transplanted mice were injected intravenously into secondary recipients (conditioned NSG mice) and left untreated for 8 weeks. Bone marrow cells were analyzed as in FIG. 16. Frequency of human CD45 positive cells referred to control is represented. Lower panel. 50×10^3 engrafted human cells were screened for CFUs. The normalized number of CFUs obtained is represented. *p<0.05; ***p<0.005; ****p<0.0001.
(§2) In order to assay the in vivo self-renewal capacity remaining in the engrafted samples, secondary transplants were performed. Less than 35% of AML cells were detected in mice injected with apomorphine- or methiothepin-treated cells (FIG. 17).

The subject of series [3] is engrafted healthy HSCs. Nature of the series: CFU assay of engrafted healthy HSCs. It counts as cell-based. To be noted: engrafted human cells from primary transplanted mice. The method, then:
as §1, §2

Series [4] deals with healthy haematopoietic stem/progenitor cells. Nature of the series: Clonogenic capacity of lineage-depleted umbilical cord blood cells. The settings on record: 10 μM for 18 h, then 14 days in methylcellulose. The class given is cell-based, human. The method, then: FIG. 11. […] Cells were then cultivated in Methylcellulose supplemented with haematopoietic cytokines for 14 days. The number of colonies obtained was measured by microscopy based on morphological criteria. A. Total number of colonies is represented. CFU: colony-forming units. B. Frequency of each colony subtype is shown (CFU-Mix, Mix lineaged colony; CFU-GM, granulo-monocyte colony; CFU-G, granulocyte colony; CFU-M, monocyte colony; BFU-E erythrocyte blast colony). 4 primary umbilical cord blood samples were analyzed.
Next, lineage-depleted umbilical cord blood cells were treated with Apomorphine or Methiothepin as done above for AML cells. 14 days after plating, colonies were counted by light microscopy based on morphology and cellularity.

Series [5] concerns primary AML blasts. Nature of the series: Cell viability of primary patient AML samples (bulk and CD34+CD38- primitive population). It counts as cell-based, human. The settings on record: 0.1, 1 and 10 μM, 24 and 72 h. On the procedure:
FIG. 3. […] The primitive AML population was identified within the AML bulk population based on their positivity to CD34 and negativity to CD38. […] Cell number was calculated by volumetric count. 11 primary AML samples were analyzed in triplicates. Each symbol represents a specific AML patient.
FIG. 4. […] The primitive AML population was identified within the AML bulk population based on their positivity to CD34 and negativity to CD38. […] Cell number was calculated by volumetric count. 11 primary AML samples were analyzed in triplicates. Each symbol represents a specific AML patient.
Primary AML patient samples were treated with subtype 1 and 2 HTR antagonists for 24 and 72 h at 0.1, 1 and 10 μM. Five hundred thousand cells per mL were seeded in IMDM supplemented with insulin, transferrin, bovine serum albumin, IL3 and non-essential aminoacids. Cell viability was measured by flow cytometry as described above.
Like the normal haematopoietic system, AML is thought to be organized as a hierarchy of distinct and functionally heterogeneous classes of cells that is ultimately sustained by a small number of leukaemic stem cells (LSCs) with enhanced self-renewal capacity, impaired differentiation ability, and increase drug resistance (Bonnet and Dick Nat Med. 1997; 3(7):730-7). The LSC population is found enriched inside the CD34+CD38− AML blast population.

Series [6] deals with MonoMac-1 cells. The series is described as follows: In vivo xenotransplantation mouse model (NSG mice injected with MonoMac-1 cells). To be noted: IP every other day, day 7 to 14; apomorphine 5 mg/kg, methiothepin 0.1 mg/kg; versus vehicle. The method, then:
FIG. 15. Treatment with 5HTR1 antagonists reduce AML burden in an in vivo xenotransplantation mouse model. 6-8 week-old NOD.Cg-Prkdc^scid Il2rg^tm1Wj1/SzJ (NSG) mice were myeloablated with busulfan (30 mg/kg IP) at day 0. At day 1, 10^6 MonoMac-1 cells were injected IV. From day 7 to day 14, mice were treated IP every other day with apomorphine (5 mg/kg) or methiothepin (0.1 mg/kg), while control mice were treated with saline vehicle (0.9% NaCl). At day 15, mice were sacrificed and their bones (iliac crests, femurs and tibias) were harvested and analyzed for the presence of human cells. Bone marrow samples were measured by flow cytometry. Frequency of human CD45 positive cells (upper panel) and total human CD45 positive cells (lower panel) in BM refer to control. Bars represent the mean value. Error bars represent SEM. **p<0.01; ***p<0.001.
Leukemia cells mainly reside in the bone marrow niche where the stroma cell compartment provides paracrine signaling that strongly mediates their survival and proliferation and protects them from apoptosis ( ). Accordingly, conditioned immunodeficient NOD.Cg-Prkdc^scid Il2rg^tm1Wj1/SzJ (NSG) mice (Sanchez et al Leukemia. 2009 November; 23(11):2109-17) were transplanted with human AML cells and left for 7 days for the leukemia to be established. […]

Series [7] deals with healthy blood cells. To be noted: 0.1, 1 and 10 μM, 24 h or 72 h; healthy donor peripheral blood.
Series [8] concerns lineage-depleted UCB cells. The series is described as follows: Engraftment of ex vivo treated lineage-depleted UCB cells in NSG mice. The arrangement: species or system mouse. To be noted: ex vivo 10 μM for 18 h; 8 weeks after transplantation. The method, then:
FIG. 16. 5HTR antagonist treatment reduces the leukemia regeneration capacity of primary AML cells, whilst sparing healthy hematopoietic stem/progenitor cells. 1-10×10^6 primary AML patient cells or 10-14×10^4 lineage-depleted CB cells were ex vivo treated (10 μM apomorphine, 10 μM methiothepin or vehicle control) for 18 h in IMDM supplemented with 5% heat-inactivated fetal bovine serum and hematopoietic cytokines. Cells were injected IV in previously busulfan (30 mg/kg)-conditioned NSG mice and left 8 weeks untreated. Mice were sacrificed and their bones (iliac crests, femurs and tibias) were harvested and analyzed for the presence of human leukemia (upper panel) or healthy blood (lower panel) cells by flow cytometry. Four AML patient samples and three umbilical cord blood (UCB) samples were tested. *p<0.05; **p<0.01.
Leukemia-initiating cells (LIC) or LSCs are responsible for the engraftment of AML cells in xenograft mouse models and are thought to initiate and maintain the disease in humans. Primary AML patient samples were treated ex vivo with 5HTR antagonists for 18 h and transplanted into conditioned immunodeficient NSG mice. Eight weeks after transplantation, murine bone marrow was analyzed for the presence of human AML cells.

For `CN1CCc2cccc3c2[C@H]1Cc1ccc(O)c(O)c1-3` [Apomorphine, (6aR)-6-methyl-5,6,6a,7-tetrahydro-4H-dibenzo[de,g]quinoline-10,11-diol], the “expression of differentiation-associated surface markers CD11c, CD11b and CD14” value in series [1] was “induced the expression of CD11c, CD11b and CD14”. The “clonogenic capacity of engrafted AML samples (CFU assays)” value in series [2] is recorded as “significantly reduced”. For the same compound, the “clonogenic capacity of engrafted healthy HSCs (CFU assays)” value in series [3] is “little effect”. The “clonogenic capacity of healthy haematopoietic stem/progenitor cells (total colonies, frequency of CFU subtypes)” value in series [4] is reported as “None of the 5HTR antagonists affected the clonogenic capacity”. Besides, the “cell death on primary AML blasts” value in series [5] (bulk population) is listed as “induced cell death on primary AML blasts in a dose-response fashion”. The “cell viability of the most primitive LSC-enriched blast population” value in series [5] (CD34+CD38- population) is recorded as “reduced cell viability”. In addition, in series [6], the “AML burden in bone marrow” value is “significant reduction in AML burden”. The “healthy blood cell viability” value in series [7] is listed as “remains unaffected”. Moreover, the “normal hematopoietic regeneration capacity of lineage-depleted UCB cells” value in series [8] is “negligible effect”.
